Results as given in ChEMBL document CHEMBL1150977, “A quantitative analysis of kinase inhibitor selectivity” (Nat Biotechnol, 2008).
pKd: −log10 of the molar value.

target: Ribosomal protein S6 kinase alpha-1 (Homo sapiens, UniProt Q15418)
Sequence (Q15418 whole entry): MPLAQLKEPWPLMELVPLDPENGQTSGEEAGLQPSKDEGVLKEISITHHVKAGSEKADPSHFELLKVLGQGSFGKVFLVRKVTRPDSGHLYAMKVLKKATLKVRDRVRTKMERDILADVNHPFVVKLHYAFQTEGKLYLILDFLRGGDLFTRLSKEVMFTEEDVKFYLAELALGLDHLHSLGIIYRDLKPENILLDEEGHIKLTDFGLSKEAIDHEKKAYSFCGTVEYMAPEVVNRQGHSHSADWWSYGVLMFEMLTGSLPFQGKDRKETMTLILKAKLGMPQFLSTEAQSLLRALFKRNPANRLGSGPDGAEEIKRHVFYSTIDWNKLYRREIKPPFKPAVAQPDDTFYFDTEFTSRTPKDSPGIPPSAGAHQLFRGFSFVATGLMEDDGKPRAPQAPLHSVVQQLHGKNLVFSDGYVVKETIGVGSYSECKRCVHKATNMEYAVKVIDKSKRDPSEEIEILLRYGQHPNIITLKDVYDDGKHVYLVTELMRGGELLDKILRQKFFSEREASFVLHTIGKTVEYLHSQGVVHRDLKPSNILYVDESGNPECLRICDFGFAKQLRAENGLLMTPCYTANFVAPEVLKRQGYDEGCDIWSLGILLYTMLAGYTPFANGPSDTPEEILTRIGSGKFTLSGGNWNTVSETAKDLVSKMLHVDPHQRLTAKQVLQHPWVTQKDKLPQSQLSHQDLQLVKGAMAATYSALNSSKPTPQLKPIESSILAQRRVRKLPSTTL

SMILES | pKd
CCOc1cc2ncc(C#N)c(Nc3ccc(F)c(Cl)c3)c2cc1NC(=O)/C=C/CN(C)C [PELITINIB] | < 5.00
Oc1ccc(-c2nc(-c3ccncc3)c(-c3ccc(F)cc3)[nH]2)cc1 [SB-202190] | 6.77

target: T1, Tyrosine-protein kinase Tec (Homo sapiens, UniProt P42680)
T1 sequence (P42680 whole entry): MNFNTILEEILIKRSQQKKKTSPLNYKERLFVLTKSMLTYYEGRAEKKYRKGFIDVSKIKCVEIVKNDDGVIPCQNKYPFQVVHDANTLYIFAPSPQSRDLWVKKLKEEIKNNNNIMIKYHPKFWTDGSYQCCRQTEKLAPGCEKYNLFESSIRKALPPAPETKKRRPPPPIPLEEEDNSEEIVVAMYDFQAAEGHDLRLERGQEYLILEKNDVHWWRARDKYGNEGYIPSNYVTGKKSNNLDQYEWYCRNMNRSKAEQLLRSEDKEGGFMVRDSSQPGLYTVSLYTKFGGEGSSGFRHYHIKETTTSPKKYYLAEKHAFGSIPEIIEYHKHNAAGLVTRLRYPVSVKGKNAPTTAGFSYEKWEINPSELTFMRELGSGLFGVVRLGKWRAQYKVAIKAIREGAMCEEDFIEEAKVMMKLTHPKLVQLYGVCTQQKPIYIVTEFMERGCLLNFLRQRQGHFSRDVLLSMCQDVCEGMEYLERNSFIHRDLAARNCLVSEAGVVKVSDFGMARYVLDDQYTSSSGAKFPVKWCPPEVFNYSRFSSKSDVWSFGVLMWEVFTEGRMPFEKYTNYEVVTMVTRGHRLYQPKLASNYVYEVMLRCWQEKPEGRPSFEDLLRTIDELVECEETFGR

SMILES | pKd
CCOc1cc2ncc(C#N)c(Nc3ccc(F)c(Cl)c3)c2cc1NC(=O)/C=C/CN(C)C [PELITINIB] | < 5.00
Oc1ccc(-c2nc(-c3ccncc3)c(-c3ccc(F)cc3)[nH]2)cc1 [SB-202190] | < 5.00

target: Serine/threonine-protein kinase SIK2 (Homo sapiens, UniProt Q9H0K1)

SMILES | pKd
Oc1ccc(-c2nc(-c3ccncc3)c(-c3ccc(F)cc3)[nH]2)cc1 [SB-202190] | < 5.00

target: Activin receptor type-2A (Homo sapiens, UniProt P27037)

SMILES | pKd
CCOc1cc2ncc(C#N)c(Nc3ccc(F)c(Cl)c3)c2cc1NC(=O)/C=C/CN(C)C [PELITINIB] | < 5.00
Oc1ccc(-c2nc(-c3ccncc3)c(-c3ccc(F)cc3)[nH]2)cc1 [SB-202190] | < 5.00

target: Mitogen-activated protein kinase kinase kinase 4 (Homo sapiens, UniProt Q9Y6R4)

SMILES | pKd
Oc1ccc(-c2nc(-c3ccncc3)c(-c3ccc(F)cc3)[nH]2)cc1 [SB-202190] | < 5.00

target: T2, Phosphatidylinositol 5-phosphate 4-kinase type-2 beta (Homo sapiens, UniProt P78356)
T2 sequence (P78356 whole entry): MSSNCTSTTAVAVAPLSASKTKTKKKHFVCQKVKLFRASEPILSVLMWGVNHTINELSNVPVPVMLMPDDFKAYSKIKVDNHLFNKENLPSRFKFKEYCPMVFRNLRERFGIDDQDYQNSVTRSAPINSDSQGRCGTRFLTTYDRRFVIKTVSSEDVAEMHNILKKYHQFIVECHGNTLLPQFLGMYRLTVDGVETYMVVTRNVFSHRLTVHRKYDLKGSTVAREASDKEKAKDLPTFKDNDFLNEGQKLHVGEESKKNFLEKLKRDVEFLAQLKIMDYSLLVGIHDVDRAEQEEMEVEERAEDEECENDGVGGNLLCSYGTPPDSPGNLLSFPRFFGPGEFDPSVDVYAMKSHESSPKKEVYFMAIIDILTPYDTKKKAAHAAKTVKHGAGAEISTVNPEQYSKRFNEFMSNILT

SMILES | pKd
Oc1ccc(-c2nc(-c3ccncc3)c(-c3ccc(F)cc3)[nH]2)cc1 [SB-202190] | < 5.00

target: eIF-2-alpha kinase GCN2 (Homo sapiens, UniProt Q9P2K8, S808G)

SMILES | pKd
CCOc1cc2ncc(C#N)c(Nc3ccc(F)c(Cl)c3)c2cc1NC(=O)/C=C/CN(C)C [PELITINIB] | 6.54
Oc1ccc(-c2nc(-c3ccncc3)c(-c3ccc(F)cc3)[nH]2)cc1 [SB-202190] | < 5.00

target: Ribosomal protein S6 kinase alpha-3 (Homo sapiens, UniProt P51812)
Sequence (P51812 whole entry): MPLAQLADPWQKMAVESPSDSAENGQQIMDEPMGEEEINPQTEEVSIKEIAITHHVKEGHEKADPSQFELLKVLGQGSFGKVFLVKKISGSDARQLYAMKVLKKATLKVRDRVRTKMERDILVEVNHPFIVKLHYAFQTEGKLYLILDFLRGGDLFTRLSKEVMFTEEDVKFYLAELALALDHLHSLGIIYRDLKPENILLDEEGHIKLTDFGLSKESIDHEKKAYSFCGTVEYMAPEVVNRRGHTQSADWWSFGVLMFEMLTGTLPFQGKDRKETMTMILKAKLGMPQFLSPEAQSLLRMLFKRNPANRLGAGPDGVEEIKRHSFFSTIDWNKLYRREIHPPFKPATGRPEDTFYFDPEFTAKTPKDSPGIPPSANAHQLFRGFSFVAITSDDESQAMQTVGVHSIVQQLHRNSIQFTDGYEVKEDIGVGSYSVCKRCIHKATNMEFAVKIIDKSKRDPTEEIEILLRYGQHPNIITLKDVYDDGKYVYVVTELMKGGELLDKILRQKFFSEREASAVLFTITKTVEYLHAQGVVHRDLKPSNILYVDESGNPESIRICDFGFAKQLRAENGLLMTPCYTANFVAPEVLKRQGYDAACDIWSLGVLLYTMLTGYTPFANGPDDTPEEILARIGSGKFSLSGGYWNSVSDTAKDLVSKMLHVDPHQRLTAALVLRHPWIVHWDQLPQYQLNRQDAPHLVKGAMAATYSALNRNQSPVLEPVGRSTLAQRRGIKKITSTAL

SMILES | pKd
CCOc1cc2ncc(C#N)c(Nc3ccc(F)c(Cl)c3)c2cc1NC(=O)/C=C/CN(C)C [PELITINIB] | < 5.00
Oc1ccc(-c2nc(-c3ccncc3)c(-c3ccc(F)cc3)[nH]2)cc1 [SB-202190] | < 5.00

target: Calcium/calmodulin-dependent protein kinase kinase 1 (Homo sapiens, UniProt Q8N5S9)

SMILES | pKd
CCOc1cc2ncc(C#N)c(Nc3ccc(F)c(Cl)c3)c2cc1NC(=O)/C=C/CN(C)C [PELITINIB] | 5.29
Oc1ccc(-c2nc(-c3ccncc3)c(-c3ccc(F)cc3)[nH]2)cc1 [SB-202190] | < 5.00

target: Dual specificity mitogen-activated protein kinase kinase 1 (Homo sapiens, UniProt Q02750)

SMILES | pKd
Oc1ccc(-c2nc(-c3ccncc3)c(-c3ccc(F)cc3)[nH]2)cc1 [SB-202190] | < 5.00

target: Protein kinase C eta type (Homo sapiens, UniProt P24723)
Sequence (P24723 whole entry): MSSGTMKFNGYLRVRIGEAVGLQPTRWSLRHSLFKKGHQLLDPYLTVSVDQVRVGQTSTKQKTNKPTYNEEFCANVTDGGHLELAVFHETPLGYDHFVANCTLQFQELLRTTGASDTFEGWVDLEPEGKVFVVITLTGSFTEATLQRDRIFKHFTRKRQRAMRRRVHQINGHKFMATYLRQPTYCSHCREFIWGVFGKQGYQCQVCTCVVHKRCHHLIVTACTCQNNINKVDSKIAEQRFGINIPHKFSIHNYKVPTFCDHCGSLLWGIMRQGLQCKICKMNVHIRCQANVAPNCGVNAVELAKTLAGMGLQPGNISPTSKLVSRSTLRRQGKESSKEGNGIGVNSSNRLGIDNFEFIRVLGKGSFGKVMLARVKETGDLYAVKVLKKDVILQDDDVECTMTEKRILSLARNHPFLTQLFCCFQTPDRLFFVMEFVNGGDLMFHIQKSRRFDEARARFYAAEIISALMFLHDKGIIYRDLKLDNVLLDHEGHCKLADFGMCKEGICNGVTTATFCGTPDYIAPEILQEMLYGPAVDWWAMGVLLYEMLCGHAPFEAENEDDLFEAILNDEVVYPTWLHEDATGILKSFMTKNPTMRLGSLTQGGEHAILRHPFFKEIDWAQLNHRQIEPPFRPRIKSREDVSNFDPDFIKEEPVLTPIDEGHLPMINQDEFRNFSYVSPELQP

SMILES | pKd
CCOc1cc2ncc(C#N)c(Nc3ccc(F)c(Cl)c3)c2cc1NC(=O)/C=C/CN(C)C [PELITINIB] | < 5.00
Oc1ccc(-c2nc(-c3ccncc3)c(-c3ccc(F)cc3)[nH]2)cc1 [SB-202190] | < 5.00

target: Mitogen-activated protein kinase kinase kinase 10 (Homo sapiens, UniProt Q02779)

SMILES | pKd
CCOc1cc2ncc(C#N)c(Nc3ccc(F)c(Cl)c3)c2cc1NC(=O)/C=C/CN(C)C [PELITINIB] | < 5.00
Oc1ccc(-c2nc(-c3ccncc3)c(-c3ccc(F)cc3)[nH]2)cc1 [SB-202190] | < 5.00

target: Cyclin-dependent kinase 14 (Homo sapiens, UniProt O94921)
Sequence (O94921 whole entry): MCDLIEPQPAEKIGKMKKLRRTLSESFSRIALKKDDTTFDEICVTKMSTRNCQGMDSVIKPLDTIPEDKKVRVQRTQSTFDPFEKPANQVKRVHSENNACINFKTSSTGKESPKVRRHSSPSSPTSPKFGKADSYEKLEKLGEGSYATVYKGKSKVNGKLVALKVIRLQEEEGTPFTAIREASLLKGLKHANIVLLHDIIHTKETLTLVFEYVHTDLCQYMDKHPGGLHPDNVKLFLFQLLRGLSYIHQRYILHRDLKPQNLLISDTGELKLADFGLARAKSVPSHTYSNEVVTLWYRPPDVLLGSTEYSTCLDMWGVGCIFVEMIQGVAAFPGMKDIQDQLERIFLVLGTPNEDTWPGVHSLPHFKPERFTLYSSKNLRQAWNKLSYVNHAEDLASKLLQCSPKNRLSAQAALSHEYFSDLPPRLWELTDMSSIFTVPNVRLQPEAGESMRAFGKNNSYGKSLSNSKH

SMILES | pKd
CCOc1cc2ncc(C#N)c(Nc3ccc(F)c(Cl)c3)c2cc1NC(=O)/C=C/CN(C)C [PELITINIB] | < 5.00
Oc1ccc(-c2nc(-c3ccncc3)c(-c3ccc(F)cc3)[nH]2)cc1 [SB-202190] | < 5.00

target: Ephrin type-A receptor 2 (Homo sapiens, UniProt P29317)

SMILES | pKd
CCOc1cc2ncc(C#N)c(Nc3ccc(F)c(Cl)c3)c2cc1NC(=O)/C=C/CN(C)C [PELITINIB] | < 5.00
Oc1ccc(-c2nc(-c3ccncc3)c(-c3ccc(F)cc3)[nH]2)cc1 [SB-202190] | < 5.00

target: MAP kinase-activated protein kinase 2 (Homo sapiens, UniProt P49137)
Sequence (P49137 whole entry): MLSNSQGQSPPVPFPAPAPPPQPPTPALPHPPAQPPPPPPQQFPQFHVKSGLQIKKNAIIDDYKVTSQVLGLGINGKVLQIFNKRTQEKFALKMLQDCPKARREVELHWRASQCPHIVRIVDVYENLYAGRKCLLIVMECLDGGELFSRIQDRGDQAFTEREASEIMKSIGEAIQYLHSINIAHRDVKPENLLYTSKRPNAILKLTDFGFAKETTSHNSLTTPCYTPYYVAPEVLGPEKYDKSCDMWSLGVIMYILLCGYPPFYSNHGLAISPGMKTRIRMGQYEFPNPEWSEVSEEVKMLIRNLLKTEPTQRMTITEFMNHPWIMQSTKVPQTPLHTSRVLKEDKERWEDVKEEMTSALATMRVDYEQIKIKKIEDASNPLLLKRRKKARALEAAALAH

SMILES | pKd
CCOc1cc2ncc(C#N)c(Nc3ccc(F)c(Cl)c3)c2cc1NC(=O)/C=C/CN(C)C [PELITINIB] | < 5.00
Oc1ccc(-c2nc(-c3ccncc3)c(-c3ccc(F)cc3)[nH]2)cc1 [SB-202190] | < 5.00

target: T3, Mitogen-activated protein kinase kinase kinase kinase 3 (Homo sapiens, UniProt Q8IVH8)
T3 sequence (Q8IVH8 whole entry): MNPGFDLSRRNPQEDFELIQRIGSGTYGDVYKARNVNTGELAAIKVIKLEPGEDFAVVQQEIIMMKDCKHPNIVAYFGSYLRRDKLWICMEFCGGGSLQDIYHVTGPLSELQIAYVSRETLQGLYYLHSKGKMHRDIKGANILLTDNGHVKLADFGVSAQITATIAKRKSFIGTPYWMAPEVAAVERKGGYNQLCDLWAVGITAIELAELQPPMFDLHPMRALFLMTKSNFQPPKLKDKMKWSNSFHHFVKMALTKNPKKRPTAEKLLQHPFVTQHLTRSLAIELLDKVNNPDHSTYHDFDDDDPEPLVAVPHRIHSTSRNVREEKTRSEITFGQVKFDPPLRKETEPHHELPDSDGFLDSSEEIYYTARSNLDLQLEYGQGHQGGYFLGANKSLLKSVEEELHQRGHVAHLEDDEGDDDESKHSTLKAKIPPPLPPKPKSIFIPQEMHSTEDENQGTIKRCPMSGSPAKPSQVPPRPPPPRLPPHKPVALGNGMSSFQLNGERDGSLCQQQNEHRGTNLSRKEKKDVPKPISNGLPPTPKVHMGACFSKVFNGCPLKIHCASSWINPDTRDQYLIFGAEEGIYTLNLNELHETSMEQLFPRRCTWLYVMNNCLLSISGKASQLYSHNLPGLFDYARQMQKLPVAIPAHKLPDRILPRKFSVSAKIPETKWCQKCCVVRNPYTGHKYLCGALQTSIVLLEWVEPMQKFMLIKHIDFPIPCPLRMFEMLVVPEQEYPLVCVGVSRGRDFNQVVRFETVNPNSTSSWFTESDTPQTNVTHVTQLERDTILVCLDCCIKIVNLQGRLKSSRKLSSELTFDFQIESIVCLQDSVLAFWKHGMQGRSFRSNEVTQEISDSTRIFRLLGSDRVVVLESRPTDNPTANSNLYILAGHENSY

SMILES | pKd
Oc1ccc(-c2nc(-c3ccncc3)c(-c3ccc(F)cc3)[nH]2)cc1 [SB-202190] | < 5.00

target: TGF-beta receptor type-2 (Homo sapiens, UniProt P37173)
Sequence (P37173 whole entry): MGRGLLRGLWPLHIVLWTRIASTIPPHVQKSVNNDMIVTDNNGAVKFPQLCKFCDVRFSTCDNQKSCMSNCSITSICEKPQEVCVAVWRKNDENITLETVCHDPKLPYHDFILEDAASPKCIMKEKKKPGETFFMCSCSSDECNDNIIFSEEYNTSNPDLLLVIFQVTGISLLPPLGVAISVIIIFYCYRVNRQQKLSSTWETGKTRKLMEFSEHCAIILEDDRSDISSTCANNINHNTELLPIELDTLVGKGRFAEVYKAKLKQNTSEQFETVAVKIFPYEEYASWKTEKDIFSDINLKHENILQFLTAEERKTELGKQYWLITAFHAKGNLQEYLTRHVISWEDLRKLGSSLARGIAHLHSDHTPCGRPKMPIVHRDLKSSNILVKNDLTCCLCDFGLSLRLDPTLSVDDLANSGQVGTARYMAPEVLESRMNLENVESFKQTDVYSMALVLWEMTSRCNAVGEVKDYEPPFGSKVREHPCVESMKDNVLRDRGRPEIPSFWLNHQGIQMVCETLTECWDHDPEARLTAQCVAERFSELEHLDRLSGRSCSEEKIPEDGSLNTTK

SMILES | pKd
CCOc1cc2ncc(C#N)c(Nc3ccc(F)c(Cl)c3)c2cc1NC(=O)/C=C/CN(C)C [PELITINIB] | < 5.00
Oc1ccc(-c2nc(-c3ccncc3)c(-c3ccc(F)cc3)[nH]2)cc1 [SB-202190] | < 5.00

target: Proto-oncogene tyrosine-protein kinase receptor Ret (Homo sapiens, UniProt P07949, M918T)
Sequence (P07949 29-1114 M918T limits assumed): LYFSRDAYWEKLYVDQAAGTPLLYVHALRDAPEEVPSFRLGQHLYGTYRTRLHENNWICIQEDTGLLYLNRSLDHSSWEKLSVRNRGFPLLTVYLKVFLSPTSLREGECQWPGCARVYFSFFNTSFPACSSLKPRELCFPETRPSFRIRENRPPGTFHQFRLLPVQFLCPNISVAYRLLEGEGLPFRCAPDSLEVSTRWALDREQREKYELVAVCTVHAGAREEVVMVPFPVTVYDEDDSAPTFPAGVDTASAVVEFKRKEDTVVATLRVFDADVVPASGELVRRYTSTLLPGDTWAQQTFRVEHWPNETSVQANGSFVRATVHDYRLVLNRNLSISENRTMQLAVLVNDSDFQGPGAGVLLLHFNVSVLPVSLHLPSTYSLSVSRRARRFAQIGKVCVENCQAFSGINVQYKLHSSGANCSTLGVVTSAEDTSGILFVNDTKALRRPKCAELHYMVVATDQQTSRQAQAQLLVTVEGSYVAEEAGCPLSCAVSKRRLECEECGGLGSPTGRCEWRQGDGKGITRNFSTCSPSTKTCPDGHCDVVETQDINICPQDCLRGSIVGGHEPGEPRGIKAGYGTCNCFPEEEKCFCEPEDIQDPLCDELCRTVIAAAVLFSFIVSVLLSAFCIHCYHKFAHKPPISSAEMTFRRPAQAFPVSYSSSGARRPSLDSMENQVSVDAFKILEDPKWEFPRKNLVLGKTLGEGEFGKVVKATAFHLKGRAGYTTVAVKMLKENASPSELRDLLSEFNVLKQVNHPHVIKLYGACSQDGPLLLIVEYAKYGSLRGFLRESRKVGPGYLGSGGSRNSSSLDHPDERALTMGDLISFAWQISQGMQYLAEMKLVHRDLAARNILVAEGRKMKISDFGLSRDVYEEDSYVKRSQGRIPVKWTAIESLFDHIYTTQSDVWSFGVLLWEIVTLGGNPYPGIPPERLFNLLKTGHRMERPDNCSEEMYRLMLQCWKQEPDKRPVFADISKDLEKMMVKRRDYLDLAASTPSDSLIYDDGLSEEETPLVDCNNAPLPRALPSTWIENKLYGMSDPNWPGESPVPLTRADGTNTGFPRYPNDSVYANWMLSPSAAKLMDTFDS

SMILES | pKd
CCOc1cc2ncc(C#N)c(Nc3ccc(F)c(Cl)c3)c2cc1NC(=O)/C=C/CN(C)C [PELITINIB] | < 5.00
Oc1ccc(-c2nc(-c3ccncc3)c(-c3ccc(F)cc3)[nH]2)cc1 [SB-202190] | < 5.00
